Test results as given in US9145449B2, “STIP1 polypeptides and uses thereof” (Chang Gung Memorial Hospital, Linkou Branch, priority 2013, dated 2015).
Where a SMILES comes first, the peptide text is derived from it. Where no end group is shown, it is not given here.

Experiments:
ovarian cancer cells = assay: BrdU proliferation assay (FIG. 7A, 7C, 7E); type: cell-based, human; settings: for rhSTIP1-increased BrdU incorporation: with inhibitor, antibody or siRNA
Method: (§1) The BrdU assay and Ki67 staining procedures have been reported previously (Tsai et al 2012, Wang et al 2010). For BrdU assays, cancer cells were seeded at a density of 10^4 cells/well in a 96-well plate overnight, and cultured in serum-free medium for 24 h. Cancer cells were treated with 0.4 μM of rhSTIP1 in the presence of BrdU for 24 h. DNA synthesis activity was measured using BrdU ELISA kit (Roche Applied Science). For immunocytochemistry studies of Ki-67, MDAH2774 cells were cultured on Lab-Tek II chamber slides (Nalge Nunc International, Denmark) overnight. After serum starvation or RNAi transfection for 72 h, cancer cells were treated with 0.4 μM of STIP1 with or without an STIP1 antibody for another 24 h. The slides were fixed with 99.9% of ethanol, rehydrated with PBS, treated with 3% of hydrogen peroxide for 20 min, permeabilized with 0.1% Triton X-100 (Sigma) for 15 min, and stained with anti-Ki67 antibody (Thermo Fisher Scientific, Rockford, Ill.).
(§2) BrdU is an analogue of thymidine which can replace thymidine during DNA replication, and Ki67 is a nuclear protein that is associated with cell proliferation. BrdU incorporation assay and immunocytochemistry for endogenous Ki67 were used as an index for cell proliferation. Treatment with rhSTIP1 increased the BrdU incorporation rate and Ki67 staining of ovarian cancer cells (FIG. 7A to FIG. 7F). These activities were reduced by treatment with an ALK2/ALK3 inhibitor (LDN193189) and an ERK inhibitor (PD98059) (FIGS. 7A and 7B), an STIP1 antibody (FIGS. 7C and 7D), and ALK2 siRNA and STIP1 siRNA (FIGS. 7E and 7F).

MDAH2774 cells = assay: Ki67 immunocytochemistry (FIG. 7B, 7D, 7F); type: cell-based, human; settings: for rhSTIP1-increased Ki67 staining: with inhibitor, antibody or siRNA
Method: as §1, §2

[1] = system: ovarian cancer cells (MDAH2774); assay: MTT cell viability of transfected MDAH2774 cells; type: cell-based, human; settings: for Normalized O.D / Original O.D / cancer cell viability (in words, FIG. 10B and Table 2): MTT, MDAH2774; for Normalized O.D / Original O.D: peptide 200 uM; for cancer cell viability (in words, FIG. 10B and Table 2): transfected peptides
Text: Human ovarian cancer cell lines TOV112D, TOV21G, SKOV3, MDAH2774, ES2, MDAH2774, BG1; human endometrial cancer cell line RL95-2, human pancreatic cancer cell line BxPC3, breast cancer cell line (MCF7) and colon cancer cell line (HT29) were obtained from ATCC (Rockville, Md., USA). Lung cancer cell line CL1-0 and nasopharyngeal carcinoma cell line NPC-BM1 were obtained from Dr. C C Wu (Department of Medical Biotechnology and Laboratory Science, Chang-Gung University, Taoyuan, Taiwan), Wu et al. Mol. Cell Proteomics 9(6):11100 (20101). Mouse ovarian cancer cell line MOSEC was obtained from Dr. C L Chang (Department of Obstetrics and Gynecology, Mackay Memorial Hospital, Taipei, Taiwan), Chang et al. Cancer Research 67:10047 (2007). TOV112D, TOV21G, SKOV3, MDAH2774, ES2 and RL95-2 were cultured in Dulbecco's modified Eagle's medium/F-12 supplemented with 10% fetal bovine serum and antibiotics at 37° C. in 5% CO2 humidified atmosphere. BxPC3, CL1-0, NPC-BM1 and MOSEC cells were cultured in RPMI 1640 media supplemented with 10% fetal bovine serum.
Cancer cells were transfected with an STIP1 antibody in PLUSin reagent (Polyplus-transfection Inc., NY, USA) according to manufacturer's protocol. In summary, 2×10^3˜6×10^3 cancer cells were seeded in a 96-well plate overnight, followed by PBS rinse and the addition of 180 μl of OPTI-MEM. 0.6 μg of mouse STIP1 antibody were diluted in 20 mM HEPES, mixed with 1.2 μl of PLUSin by vortexing, followed by incubation at room temperature for 15 min. The antibody/PLUSin mixture was added to the cancer cells by gentle swirling the plate. The STIP1 antibody and the control IgG used in the working examples described herein are commercially available from Abnova Biotechnology Inc., (Taipei City, Taiwan). The STIP1 antibody in the working examples described herein can be used to detect recombinant full length STIP1 (SEQ ID NO:3).
1˜2×10^4 Cancer cells were plated per well in 96-well plates overnight, then transfected with a mouse STIP1 antibody (commercially available from Abnova Biotechnology Inc.) for 48 h before they were assessed. The inhibitory effect of the STIP1 antibody on the cancer cells was measured by the MTT [3-(4,5-Dimethylthiazol-2-yl)-2,5-Diphenyltetrazolium Bromide]method (Sigma St. Louis, Mo.). The optical density was measured at 570 nm using an automated scanning multiwell spectrophotometer (Wallac Victor2 spectrophotometer; PerkinElmer, Boston, Mass., USA).
Given the neutralizing effect of STIP1 polypeptide 520-543 (SEQ ID NO:1) on STIP1 antibody, co-transfecting STIP1 antibody and STIP1 polypeptide 520-543 in cancer cells may reduce the suppression effect of STIP1 antibody. FIG. 10A and Table 1 show cell viability of ovarian cancer cells (MDAH2774) transfected with STIP1 antibody only (positive control) and STIP1 antibody with various concentrations of STIP1 polypeptide 520-543. Cell viability was evaluated using MTT assays. […] For example, the cell viability for STIP1 antibody was 78.81% (Table 1), the cell viability for 25 uM of STIP1 polypeptide 520-543 was 102% (Table 2), and the cell viability for STIP1 antibody and […] of STIP1 polypeptide 520-543 was 56.38% (Table 1). Similarly, the cell viability for 200 uM of STIP1 polypeptide 520-543 was 28.64% (Table 2), and the cell viability for STIP1 antibody and […] of STIP1 polypeptide 520-543 was 27.67% (Table 1).

[2] = system: MDAH2774, ARK2, NPC-BM1, SAS, Colon 205, CL 1-0, BxPC3, HepG2 and MCF7 cells; assay: LDH assay with cell permeable peptide, cancer cell line panel (FIG. 13A); type: cell-based; settings: all of the tested cancer cells
Method: (§3) Cell permeable STIP1 polypeptide 520-543 was added to the following cancer cell lines: MDAH2774 (ovarian cancer); ARK2 (endometrial cancer); NPC-BM1 (nasopharyngeal cancer); SAS (oral cancer); Colon 205 (colon cancer); CL 1-0 (lung cancer); BxPC3 (pancreatic cancer); HepG2 (liver cancer) and MCF7 (breast cancer) cells. Cancer cell viability was assessed using the MTT assay and cell death was assessed using LDH assay.

[3] = system: MDAH2774, ARK2, NPC-BM1, SAS, Colon 205, CL 1-0, BxPC3, HepG2 and MCF7 cells; assay: MTT assay with cell permeable peptide, cancer cell line panel (FIG. 13B); type: cell-based; settings: all of the tested cancer cells
Method: as §3

SMAD1/5 phosphorylation = SMAD1/5 phosphorylation western blot / antibody neutralization assay (FIG. 6A, 6B); type: cell-based, human; settings: ES2, SKOV3, TOV21G, TOV112D, BR, BG1, RL95-2, CL1-0, NPC-BM1 cell lines
Method: Cell lysates were prepared with a RIPA buffer (150 mM NaCl, 20 mM Tris-Cl pH7.5, 1% Triton X-100, 1% NP40, 0.1% SDS, 0.5% deoxycholate) containing freshly added proteinase and phosphatase inhibitors (Bionovas, Toronto). Protein concentration was measured using the Bradford method. Fifty μg of each sample was electrophoresed in 10% SDS-polyacrylamide gels, and transferred to nitrocellulose membranes. STIP1 antibody was commercially available from Abnova Biotechnology and Santa Cruz Biotechnology, Santa Cruz, Calif., actin was commercially available from Sigma, the corresponding horseradish peroxidase-conjugated antibody was commercially available from Santa Cruz Biotechnology, enhanced chemiluminescence reagent was commercially available from Millipore Inc. (Millipore, Billerica, Mass.). The signal intensity of autoradiogram was quantified using the UN-SCAN-IT software (Silk Scientific, Orem, Utah), and relative intensity of each sample was normalized by the corresponding actin intensity. For antibody neutralization assay, cancer cells were cultured in serum-free medium for 24 h, and treated with rhSTIP1 for another 24 h in the presence or absence of the STIP1 monoclonal antibody, which were pre-incubated at 37° C. for 1 h. Endogenous phospho-SMAD1/5 was detected with western blot analysis. […]

Compound	rhSTIP1-increased BrdU incorporation (ovarian cancer cells)	rhSTIP1-increased Ki67 staining (MDAH2774 cells)	Normalized O.D [1]	Original O.D [1]	cancer cell viability (in words, FIG. 10B and Table 2) [1]	other results
c1ccc2c(-c3cnn4cc(-c5ccc(N6CCNCC6)cc5)cnc34)ccnc2c1 [LDN193189]	reduced	reduced	–	–	–	–
COc1cccc(-c2cc(=O)c3ccccc3o2)c1N [PD98059]	reduced	reduced	–	–	–	cell proliferation (BrdU incorporation, FIG. 7A) (ovarian cancer cells; inhibition of ERK activity): strongly inhibited cell proliferation
CSCC[C@H](NC(=O)[C@H](CCSC)NC(=O)[C@H](CS)NC(=O)[C@H](CCCNC(=N)N)NC(=O)[C@H](CCC(N)=O)NC(=O)[C@H](Cc1ccc(O)cc1)NC(=O)CNC(=O)[C@H](CC(=O)O)NC(=O)[C@H](C)NC(=O)[C@H](C)NC(=O)[C@H](CCC(=O)O)NC(=O)[C@H](CCCCN)NC(=O)[C@H](CS)NC(=O)[C@H](CO)NC(=O)[C@H](CO)NC(=O)[C@@H](N)CC(=O)O)C(=O)N[C@@H](C)C(=O)N[C@@H](CCC(N)=O)C(=O)N[C@@H](Cc1ccc(O)cc1)C(=O)N[C@@H](CC(N)=O)C(=O)N[C@@H](CCCNC(=N)N)C(=O)N[C@@H](Cc1c[nH]cn1)C(=O)N[C@@H](CC(=O)O)C(=O)N[C@@H](CO)C(=O)N1CCC[C@H]1C(=O)O [Peptide 458] (H-DSSCKEAADGYQRCMMAQYNRHDSP-OH; N-terminus and C-terminus assumed)	–	–	0.83	0.13	did not significantly suppress cancer cell viability	–
VQQIMSDPAMRLILEQMQKDPQALS [Peptide 495]	–	–	0.97	0.14	did not significantly suppress cancer cell viability	Cell viability (%) ([1]; human, 48 h, 200 uM): 96.94%
cell permeable STIP1 polypeptide 520-543: STIP1 polypeptide 520-543 having eight D-arginine residues; detected with anti-myc antibody (EHLKNPVIAQKIQKLMDVGLIAIR; also: octa-D-arginine attached, end not given here, myc tag; UniProt P31948 520-543, looked up, fragment)	–	–	–	–	–	cell death (LDH activity) [2]: induce cell death; cell proliferation (MTT activity) [3]: inhibits cell proliferation
rhSTIP1: recombinant human STIP1 protein (a.a. sequence number 1 to 543)	–	–	–	–	–	SMAD1/5 phosphorylation (SMAD1/5 phosphorylation): stimulates SMAD1/5 phosphorylation; BrdU incorporation rate (ovarian cancer cells; treatment with rhSTIP1 (0.4 μM, 24 h)): increased; Ki67 staining (MDAH2774 cells; treatment with rhSTIP1): increased
